Source: patent publication US11970458B1, “4,5-bis(4-bromophenyl)-1-hexyl-2-(4-nitrophenyl)-1H-imidazole as an antimicrobial compound” (KING FAISAL UNIVERSITY, priority 2023, dated 2024)

How the values were obtained:
[1] = test system: Staphylococcus aureus; experiment: antimicrobial screening by agar dilution; format: cell-based; details: after 10, 20, 40 and 60 minutes at all dilutions 1:100, 1:200, 1:400, 1:800
Experimental: (§1) The antimicrobial properties of the 4,5-bis(4-bromophenyl)-1-hexyl-2-(4-nitrophenyl)-1H-imidazole was studied by the method of agar dilution. Test solutions of each compound was prepared in concentration of 1% using dimethylformamide as a solvent then they were diluted in physiological solution to obtain the final experimental dilutions 1:100, 1:200, 1:400, 1:800. The effect of these substances were compared with furacillin in a controlled study. The testing microbes used were gram positive bacteria Staphylococcus aureus, gram negative bacteria Pseudomonas aeruginosa and Escherichia coli and Candida albicans fungi were taken. The experiments used for this survey were meat-pentonlu agar (EPA) for cultivation of bacteria and Saburo environment for fungi. Each experiment used 1 ml of test solution on each plate 500 min. Add 2 drops of emulsified with microbes feel. All experimental samples were taken from the agar after 10, 20, 40, 60 minutes in the environment on the basis of Patrk planted. Bacteria were cultivated at a temperature of 37° C. for 1 day and the mushroom was kept in a thermostat for […] at a temperature of 28° C. Then results were checked.

[2] = test system: Pseudomonas aeruginosa; experiment: antimicrobial screening by agar dilution; format: cell-based; details: after 10, 20, 40 and 60 minutes at all dilutions 1:100, 1:200, 1:400, 1:800
Experimental: as §1

[3] = test system: Escherichia coli; experiment: antimicrobial screening by agar dilution; format: cell-based; details: after 10, 20, 40 and 60 minutes at all dilutions 1:100, 1:200, 1:400, 1:800
Experimental: as §1

[4] = test system: Candida albicans; experiment: antimicrobial screening by agar dilution; format: cell-based; details: after 10, 20, 40 and 60 minutes at all dilutions 1:100, 1:200, 1:400, 1:800
Experimental: as §1

melting point: 160 to 161 °C
Compound: CCCCCCn1c(-c2ccc([N+](=O)[O-])cc2)nc(-c2ccc(Br)cc2)c1-c1ccc(Br)cc1 [4,5-bis(4-bromophenyl)-1-hexyl-2-(4-nitrophenyl)-1H-imidazole]
inhibition activity [1]: highest inhibition activity
inhibition activity [2]: highest inhibition activity
inhibition activity [3]: highest inhibition activity
inhibition activity [4]: highest inhibition activity
